Results taken from patent US7888000B2, “Method for identifying salt-sensitive persons” (Morehouse School of Medicine, priority 2002, dated 2011).

Columns and labels:
[1] = rat, in vivo
[2] = system: Dahl salt-sensitive (S) rats; conditions: exogenous 25-OHD; S rats fed a high salt diet; cited from earlier work

increase of plasma 25-OHD [1]: successful in S rats fed low
Compound: C=C1CC[C@H](O)C/C1=C/C=C1\CCC[C@]2(C)[C@@H]([C@H](C)CCCC(C)(C)O)CC[C@@H]12 [25-OHD, 25-hydroxycholecalciferol]
attenuation of the blood pressure increase [2]: will not attenuate the blood pressure increase
